Results taken from US20240366589A1, “NHE3-BINDING COMPOUNDS AND METHODS FOR INHIBITING PHOSPHATE TRANSPORT” (Ardelyx, Inc., priority 2013, published 2024).

Experiments:
Rat NHE3 = biological target: T1, Rat NHE3 (Rattus norvegicus, UniProt P26433); assay: Cell-based NHE3 activity under prompt conditions (OK cells, BCECF pH recovery), rat NHE3; conditions: Table E5; 001 free base, 002-005 dihydrochloride salt
T1 construct: expressed in transfected cells; host or cells: Opossum kidney (OK) cells (ATCC), electroporation
Summary of the method: (§1)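 Read-out: initial rate of BCECF-reported intracellular pH recovery via Na+/H+ antiport, fitted to pIC50. Opossum kidney cells transfected with rat or human NHE3; NH4Cl prepulse with 5 μM BCECF-AM, 30 min RT; Na+-free choline buffer 10 min.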

Human NHE3 = biological target: T2, Human NHE3 (Homo sapiens, UniProt P48764); assay: Cell-based NHE3 activity under prompt conditions (OK cells, BCECF pH recovery), human NHE3; conditions: for Human NHE3 pIC50 Prompt: Table E5, 001 free base, 002-005 dihydrochloride salt; for pIC50 Prompt: Table E6, NHE3 species not stated
T2 construct: expressed in transfected cells; host or cells: Opossum kidney (OK) cells (ATCC), electroporation
T2 sequence (P48764 26-834): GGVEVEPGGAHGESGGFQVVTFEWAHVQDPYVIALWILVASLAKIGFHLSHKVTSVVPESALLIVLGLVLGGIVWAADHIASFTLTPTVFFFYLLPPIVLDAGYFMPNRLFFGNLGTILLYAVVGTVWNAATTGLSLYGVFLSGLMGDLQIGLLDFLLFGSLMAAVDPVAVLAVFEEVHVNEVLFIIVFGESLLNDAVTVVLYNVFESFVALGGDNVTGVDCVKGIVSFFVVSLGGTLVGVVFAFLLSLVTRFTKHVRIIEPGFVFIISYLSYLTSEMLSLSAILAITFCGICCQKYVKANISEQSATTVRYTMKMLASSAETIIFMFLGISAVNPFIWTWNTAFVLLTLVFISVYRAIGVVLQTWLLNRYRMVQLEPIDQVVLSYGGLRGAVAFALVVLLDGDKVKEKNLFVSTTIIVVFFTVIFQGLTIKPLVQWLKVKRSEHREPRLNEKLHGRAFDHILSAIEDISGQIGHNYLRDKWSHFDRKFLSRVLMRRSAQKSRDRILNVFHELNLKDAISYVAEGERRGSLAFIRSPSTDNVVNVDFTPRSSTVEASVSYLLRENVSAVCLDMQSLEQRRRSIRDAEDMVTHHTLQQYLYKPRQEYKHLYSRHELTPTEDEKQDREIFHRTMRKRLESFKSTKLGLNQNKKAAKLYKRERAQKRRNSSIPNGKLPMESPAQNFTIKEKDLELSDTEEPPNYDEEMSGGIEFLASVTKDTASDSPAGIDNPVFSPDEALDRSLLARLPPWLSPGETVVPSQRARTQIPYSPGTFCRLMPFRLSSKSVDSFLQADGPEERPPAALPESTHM
Summary of the method: as §1

T1 sequence (P26433 29-831): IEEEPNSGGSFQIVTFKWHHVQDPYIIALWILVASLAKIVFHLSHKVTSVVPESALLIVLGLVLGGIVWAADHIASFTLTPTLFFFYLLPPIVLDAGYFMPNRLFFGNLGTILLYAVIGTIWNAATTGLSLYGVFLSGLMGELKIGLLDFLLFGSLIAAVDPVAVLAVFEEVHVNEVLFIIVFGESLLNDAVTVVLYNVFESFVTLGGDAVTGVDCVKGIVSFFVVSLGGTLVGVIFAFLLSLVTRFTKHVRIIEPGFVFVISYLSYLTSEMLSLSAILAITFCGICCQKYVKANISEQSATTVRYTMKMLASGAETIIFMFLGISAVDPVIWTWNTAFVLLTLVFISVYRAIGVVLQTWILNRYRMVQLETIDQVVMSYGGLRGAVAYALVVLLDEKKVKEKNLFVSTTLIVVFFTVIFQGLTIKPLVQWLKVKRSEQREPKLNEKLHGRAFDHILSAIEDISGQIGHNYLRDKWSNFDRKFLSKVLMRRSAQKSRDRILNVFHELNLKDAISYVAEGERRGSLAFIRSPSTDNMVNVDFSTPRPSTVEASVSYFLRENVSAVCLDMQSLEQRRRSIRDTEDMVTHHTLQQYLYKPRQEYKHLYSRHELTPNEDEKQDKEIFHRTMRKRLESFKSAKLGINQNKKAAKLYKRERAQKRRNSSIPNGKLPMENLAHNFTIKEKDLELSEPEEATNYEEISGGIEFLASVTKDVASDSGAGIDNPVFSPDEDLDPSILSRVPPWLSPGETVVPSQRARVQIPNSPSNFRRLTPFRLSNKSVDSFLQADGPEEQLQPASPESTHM

Row | Structure (SMILES) | Rat NHE3 pIC50 Prompt (Rat NHE3) | Human NHE3 pIC50 Prompt (Human NHE3) | pIC50 Prompt (Human NHE3)
1 | CN1Cc2c(Cl)cc(Cl)cc2[C@H](c2cccc(S(=O)(=O)NCCOCCOCCNC(=O)NCCCCNC(=O)NCCOCCOCCNS(=O)(=O)c3cccc([C@@H]4CN(C)Cc5c(Cl)cc(Cl)cc54)c3)c2)C1 [Cpd 002] | 8 | 8 | 8
2 | CN1Cc2c(Cl)cc(Cl)cc2[C@@H](c2cccc(S(=O)(=O)NCCOCCOCCNC(=O)NCCCCNC(=O)NCCOCCOCCNS(=O)(=O)c3cccc([C@H]4CN(C)Cc5c(Cl)cc(Cl)cc54)c3)c2)C1 [Cpd 004] | 7.3 | 7.3 | 7.3
